{"source": "patent US9890151B2", "about": "“3,5-dichloro,4-(3,4-(cyclo-)alkoxyphenyl)- 2-carbonyloxy)ethyl)pyridine derivatives as PDE-4 inhibitors” (CHIESI FARMACEUTICI S.p.A., priority 2014, dated 2018)", "origin": "cited, not measured here", "key": {"[1]": {"conditions": "patients with severe disease who have frequent exacerbations and mucus hypersecretion"}}}
{"compound": "O=C(Nc1c(Cl)cncc1Cl)c1ccc(OC(F)F)c(OCC2CC2)c1", "note": "[roflumilast]", "values": [{"measurement": "reduction of the numbers of neutrophils in sputum", "setting": "COPD patients, oral roflumilast given over 4 weeks", "value": 36, "unit": "%"}, {"measurement": "improvement of FEV 1", "setting": "[1]", "value": "approximately 50 mL"}, {"measurement": "reduction of exacerbation", "setting": "[1]", "value": "about 15%"}]}
